These results are taken from publication PMC6315541, “Nile Tilapia Derived Antimicrobial Peptide TP4 Exerts Antineoplastic Activity Through Microtubule Disruption” (Marine Drugs, 2018).

Assay [1] deals with microtubule regrowth in A549 cells. The assay can be described thus: Microtubule regrowth assay after nocodazole washout. The following applies: 10 μg mL^−1 TP4 3 h, nocodazole 20 μM 6 h, washout and recovery medium, α-Tubulin ICC, N = 3. Format: cell-based, human. Here is the method: (§1) To examine whether TP4 may affect microtubule dynamics, A549 cells were treated with TP4, and cytoskeletal elements were analyzed by immunocytochemistry (ICC). […] We then asked whether TP4 treatment may influence tubulin protein levels by performing Western blots on lysates from A549 cells that had been treated with vehicle or TP4. […] We next conducted a microtubule regrowth assay to further address whether TP4 may disrupt microtubule polymerization. TP4 was applied to A549 cells that had been treated with or without Nocodazole (20 μM) treatment for 6 h, which completely depolymerizes the microtubule network. The repolymerization of microtubules was then initialized by the addition of fresh recovery medium, and regrowth was analyzed by ICC.
Figure 2 TP4 disrupts the microtubule network in cancer cells. (A) Cells were stained for α-Tubulin and F-actin. Hoechst33342 was used to stain nuclei. Arrows indicate cells with negative α-Tubulin staining. Bar: 20 μm. (B) Total lysates from cells with mock (labeled C) or TP4 treatment (labeled T) were analyzed by Western blot using antibodies against GAPDH and α-Tubulin. Quantification of the α-Tubulin signal normalized to GAPDH is shown. Mr is the molecular weight. […] Bar: 20 μm (D) Quantification of the number of cells with Tubulin-positive and Tubulin-negative staining. […]

The subject of assay [2] is microtubule network (α-Tubulin) in A549 cells. The assay can be described thus: Immunocytochemistry of microtubule network and peptide uptake in A549 cells. The settings on record: for effect on microtubule network (α-Tubulin ICC): FITC-labeled mutants. Format: cell-based, human. Here is the method:
as §1
While the reduced toxicity may result from impaired binding to tubulin, it is also possible that such effects may be caused by conformational changes in the TP4 mutants, see Supplementary Figure S1C,D, which prevent intracellular penetration. To test this possibility, ICC was conducted to evaluate the cellular localization and the effects on microtubules. […] For both Gly and Ala substitution mutants, FITC-labeled TP4 mutants were able to be taken up intracellularly, see Figure 6B, panels MT-1 to MT-6. However, the microtubule network was only affected in MT-1- and MT-4-treated cells and not the other mutant-treated groups, as shown in Figure 6B.
Figure 6 Loss of cancer-killing ability in TP4 mutants. (A) Cell viability in A549 cells was determined by the adenosine triphosphate (ATP) assay following treatment with varying doses of TP4 and TP4 mutants for 24 h. Multiple wells were analyzed for each assay. Results represent the mean ± SD. Statistical comparisons between groups were performed using two-way ANOVA: a, not significant; b, p < 0.05; d, p < 0.001. Statistical analyses are shown in Supplementary Table S1. (B) Cells were stained for TP4 (WT panel), FITC (MT-1 to MT-6 panels), α-Tubulin, and F-actin. Hoechst33342 was used for nuclei staining. Boxed regions are magnified in the furthest right panels. […] Bar: 20 μm.
Cells were stained with TP4 (1:1000), FITC (1:500, ThermoFisher Scientific, clone 1F8-1E4), α-Tubulin (1:500), and appropriate Alexa Flour conjugated secondary antibody (1:500; ThermoFisher Scientific, Eugene, OR, USA). Hochest33342 was used for nuclear staining, and Alexa Fluor 647-conjugated phalloidin (1:200, Thermo Fisher Scientific, Eugene, OR, USA) was used to stain F-actin. For the confocal microscopic analysis, samples were mounted with fluorescent mounting medium (ProLong Gold Antifade Reagent, ThermoFisher Scientific, Eugene, OR, USA) and images were obtained with a FV3000 laser-scanning confocal microscope (Olympus), using a 60 × objective lens (Plapon 60 × OSC2, N.A. 1.4, oil) with the 4′,6-diamidino-2-phenylindole (DAPI) ([…]), green fluorescent protein (GFP) (EX 470, EM 525 for enhanced GFP (EGFP)), and Cy5 ([…]) emission filters. FV31S software (Olympus, Tokyo, Japan) was used for image acquisition.

For “FIHHIIGGLFSAGKAIHRLIRRRRR [TP4, synthesized Nile tilapia-derived antimicrobial peptide, Tilapia piscidin 4]”, in assay [1], the “cells with microtubule regrowth defects” value is listed as “increased portion of TP4-treated cells had microtubule regrowth defects”. Besides, the “effect on microtubule network (α-Tubulin ICC; F-actin not affected)” value in assay [2] (A549 cells treated with TP4, Figure 2A) is listed as “clearly affected”. Further, the “effect on microtubule network (α-Tubulin ICC)” value in assay [2] (A549 cells, TP4 6.71 μM, 3 h, Figure 6B) was “microtubule defects were clearly observed”; in assay [2] (A549 cells, TP4 6.71 μM, 3 h, Figure 6B, listed as WT), “microtubule abnormalities were observed”. The “intracellular uptake (ICC, TP4 antibody or FITC)” value in assay [2] (A549 cells, TP4 6.71 μM, 3 h, mutants FITC-labeled, Figure 6B) is recorded as “peptide penetration”.
